According to paper PMC8071537:
Read-outs that look alike come from different tables or passages of the source.

Columns and labels:
[1] = Pharmacokinetics of oral TPT in rats with zosuquidar and/or Ko143 (Table S2); conditions: TPT 20 mg/kg PO + Ko143 10 mg/kg
Method: In the modified Taxol® formulation, TPT was prepared at a concentration of 2 mg/mL
TPT was also dissolved in isotonic saline at a concentration of
Tween® 80 was dissolved in
Oral Administration and Plasma Sampling
claims in published maps and institu-for the oral administration of TPT (20 mg/kg) with or without zosuquidar (25 mg/kg),
formulation. After drug administration, blood sampling was performed at 0, 0.05, 0.12,
The SD rats (male, 7‒8-weeks old, 235‒265 g) were divided into four groups (n = 6‒
Blood sampling was done at 0, 0.033, 0.083,
Pheonix WinNonlin ® software (version 8.0–8.1, Pharsight Corporation, Mountain
View, CA, USA) was used to estimate the PK parameters following oral TP T administra-
tion in rats. Non-compartmental analysis was performed using the plasma TPT concen-
tration–time profiles to obtain the following PK parameters: initial plasma concentration
(C0), area under the plasma concentration–time curve from zero to infinity (AUCINF), elim-
ination half-life (t1/2), apparent volume of distribution (Vd) after oral administration (Vd/F),
total clearance (Clt), and total oral clearance (Clt/F). The maximum plasma concentration
(Cmax) and the time required to reach Cmax (Tmax) were directly determined from the plasma
TPT concentration–time curve. The absolute BA (AB) and the relative BA (RB) of TPT were

[2] = system: CYP1A2, CYP2A6, CYP2C8/9, CYP2C19, CYP2D6, CYP2E, CYP3A, or CYP4A; parameters: method as in earlier work; conditions: According to GlaxoSmithKline; cited from earlier work
in vivo = conditions: male, Sprague-Dawley, rat, po, 20 mg/kg
Method: (§1) For PK studies, the carotid artery in healthy SD rats (male, 7‒8 weeks, 220‒298 g) was catheterized one day before drug administration [29, 30, 31, 32]. Four to six rats were grouped for the oral administration of TPT (20 mg/kg) with or without compounds (2 mg/kg) in the modified Taxol® formulation and the same dose of TPT in saline only.
(§2) The samples were chromatographically separated using a Capcell Pak C18 UG120 column (4.6 mm × 250 mm, 5 μm, Osaka Soda Co. Ltd., Osaka, Japan) with the mobile phase composed of 10 mM phosphate buffer containing 1% triethylamine (TEA) (pH 3.5) and methanol containing 1% TEA (pH 6.5) (56/44, v/v) at a flow rate of 1.0 mL/min for 30 min and detected at an excitation wavelength of 381 nm and an emission wavelength of 527 nm. The injection volume was 50 μL.
(§3) Pheonix WinNonlin® software (version 8.1, Pharsight Corporation, Mountain View, CA, USA) was used to estimate the PK parameters following oral TPT administration to rats. Non-compartmental analysis was performed using the plasma TPT concentration–time profiles to obtain the following PK parameters: area under the plasma concentration–time curve from zero to infinity (AUCINF), elimination half-life (t1/2), apparent volume of distribution after oral administration (Vd/F), and total oral clearance (Clt/F). The maximum plasma concentration (Cmax) and the time required to reach Cmax (Tmax) were directly measured from the plasma TPT concentration–time curve. The relative BA (RB) of TPT was calculated using the Equation (1):RB (%) = (AUCINF po co-administration)/(AUCINF po control) × 100(1)

[3] = Pharmacokinetics of oral TPT in rats with or without dual inhibitor candidates or formulation; conditions: male, Sprague-Dawley, rat, in vivo, 20 mg/kg
Method: as §1, §2, §3

[4] = parameters: method as in PMID 8853931; conditions: lactone moiety converted to carboxylated open-ring form; cited from earlier work
[5] = parameters: method as in PMID 8853931; conditions: humans; cited from earlier work
P-gp [6] = target: T1, P-gp (Homo sapiens, UniProt P08183); conditions: 10 μM DNR, 30 min, vs DNR-only control; zosuquidar 1 μM
T1 sequence (P08183 whole entry): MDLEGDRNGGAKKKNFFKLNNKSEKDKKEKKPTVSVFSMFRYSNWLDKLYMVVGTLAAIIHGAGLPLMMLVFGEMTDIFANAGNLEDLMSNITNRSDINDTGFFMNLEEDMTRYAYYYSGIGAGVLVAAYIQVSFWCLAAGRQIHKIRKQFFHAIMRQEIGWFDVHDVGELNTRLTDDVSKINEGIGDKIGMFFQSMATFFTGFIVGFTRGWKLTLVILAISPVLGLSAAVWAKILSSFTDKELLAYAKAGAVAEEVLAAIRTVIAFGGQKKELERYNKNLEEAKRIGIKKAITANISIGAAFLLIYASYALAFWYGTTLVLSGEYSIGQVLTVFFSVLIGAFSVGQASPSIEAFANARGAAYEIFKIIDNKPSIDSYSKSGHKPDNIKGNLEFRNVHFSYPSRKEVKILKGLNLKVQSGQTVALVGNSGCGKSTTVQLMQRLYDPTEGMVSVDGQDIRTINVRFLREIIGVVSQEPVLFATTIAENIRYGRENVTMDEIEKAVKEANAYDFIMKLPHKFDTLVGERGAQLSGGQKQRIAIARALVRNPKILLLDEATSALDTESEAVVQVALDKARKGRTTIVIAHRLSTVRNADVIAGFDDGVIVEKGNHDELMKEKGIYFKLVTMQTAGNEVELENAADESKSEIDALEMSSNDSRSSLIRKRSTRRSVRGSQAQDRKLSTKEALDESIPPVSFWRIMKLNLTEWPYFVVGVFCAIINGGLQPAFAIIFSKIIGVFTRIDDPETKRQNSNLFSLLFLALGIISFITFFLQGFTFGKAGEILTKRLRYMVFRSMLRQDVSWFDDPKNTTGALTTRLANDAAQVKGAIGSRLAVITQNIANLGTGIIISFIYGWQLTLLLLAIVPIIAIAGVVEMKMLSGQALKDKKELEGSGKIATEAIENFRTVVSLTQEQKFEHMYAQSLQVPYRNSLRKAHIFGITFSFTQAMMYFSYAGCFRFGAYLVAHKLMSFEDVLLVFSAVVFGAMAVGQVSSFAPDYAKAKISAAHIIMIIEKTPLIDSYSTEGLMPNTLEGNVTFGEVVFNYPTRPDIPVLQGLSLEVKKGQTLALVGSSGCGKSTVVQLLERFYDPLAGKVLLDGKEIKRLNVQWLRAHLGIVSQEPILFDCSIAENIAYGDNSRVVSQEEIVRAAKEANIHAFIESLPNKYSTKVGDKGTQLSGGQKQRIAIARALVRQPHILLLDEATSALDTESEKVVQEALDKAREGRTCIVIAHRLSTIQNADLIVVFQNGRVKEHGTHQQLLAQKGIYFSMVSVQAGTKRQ
Method: In this study, the cells were treated with TPT or DNR after incubation with the P-gp and/or BCRP inhibitor candidates or with the excipients for 5 min. When the incubation was complete, the medium containing the substrate and inhibitor candidate or excipient was removed, and the cells were resuspended in cold phosphate buffer saline (PBS) (500 μL). […] The mean fluorescence intensity values were calculated, and at least three independent biological duplicates were performed.
Substrate Drug Accumulation Study by Flow Cytometry
N.Y.; Sivaraman, A.; Naik, R.; Jin, μL) with 10 μM DNR in the presence and/or absence of 1 μM zosuquidar for 30 min or
TPT accumulation in cells resuspended in cold PBS

P-gp [7] = target: T1, P-gp; assay: TPT accumulation by flow cytometry in P-gp-overexpressing MCF-7/ADR cells; conditions: 200 μM TPT, 30 min, vs TPT-only; zosuquidar/Ko143 1 μM
Method: In this study, the cells were treated with TPT or DNR after incubation with the P-gp and/or BCRP inhibitor candidates or with the excipients for 5 min. When the incubation was complete, the medium containing the substrate and inhibitor candidate or excipient was removed, and the cells were resuspended in cold phosphate buffer saline (PBS) (500 μL). TPT accumulation in the cells was measured using a flow cytometer (NovoCyte 2060R, ACEA Biosciences Inc., San Diego, CA, USA). The mean fluorescence intensity values were calculated, and at least three independent biological duplicates were performed.

[8] = in vivo, 10 mg/kg; cited from earlier work

In the case of `COc1ccc2c3c([nH]c2c1)[C@H](CC(C)C)N1C(=O)[C@H](CCC(=O)OC(C)(C)C)NC(=O)[C@@H]1C3` [Ko143], the “enhanced absorption of TPT” value [1] is reported as “>two-fold”.

In the case of `CC[C@@]1(O)C(=O)OCc2c1cc1n(c2=O)Cc2cc3c(CN(C)C)c(O)ccc3nc2-1` [TPT, Topotecan], the “in vitro activity of CYP1A2, CYP2A6, CYP2C8/9, CYP2C19, CYP2D6, CYP2E, CYP3A, or CYP4A” value [2] is given as “does not alter”, the AUC(0-inf) (in vivo) is given as 2360 ± 543 ng·h/mL and the Cmax (in vivo) is given as 727 ± 265 ng/mL. For the same molecule, the Tmax (in vivo) was 0.5 to 1 h, the Vd/F [3] was 42.1 ± 14.1 L and the half-life [3] was 3.39 ± 1.09 h. The “stability under physiological pH” value [4] was “unstable”, the half-life [5] was 3 h and the “hepatic metabolism: amount of N-desmethyl TPT (of the total amount)” value [5] was under 7%. The “oral BA of active TPT” value [5] was “approximately 35%” and the “renal excretion (of the total administered dose)” value [5] was “approximately 40%”.

With `O[C@@H](COc1cccc2ncccc12)CN1CCN([C@@H]2c3ccccc3[C@@H]3[C@H](c4ccccc42)C3(F)F)CC1` [zosuquidar, Zosuquidar] the “increase in DNR accumulation in P-gp-overexpressing cells” value (P-gp [6]) was “approximately three-fold increase” and the “TPT accumulation in ADR cells” value (P-gp [7]) was “no significant difference”.

For silymarin, the “Vd/F and Clt/F of PTX” value [8] is listed as “decreased”.
